Measured values from patent US12403121B2, “Anticancer rocaglamide derivatives” (priority 2018, dated 2025).

What was measured:
[1] = test system: ST8814 NF1−/− MPNST cells; experiment: 3-day resazurin cell proliferation assay, ST8814 MPNST cells; type: cell-based, human; settings: Homo sapiens, ST88-14, 72 h, read-out: IC50 (nM) ST8814 NF1−/− MPNST cells
Experimental: (§1) The human MPNST cell lines, ST8814, STS26T, S462, T265, and luciferase-expressing ST8814-Luc, the human NF2-deficient meningioma cell line Ben-Men-1, the NJ2 mouse schwannoma cell line Sch10545, and primary human Schwann cells were propagated as previously described. Oblinger et al., Neuro-Oncol., 18:1265-1277 (2016). The Ewing sarcoma cell line A673 and the osteosarcoma cell lines, 143B and MG-63, were grown in Dulbecco's Modified Eagle's (DME) medium (Millipore-Sigma) supplemented with 10% fetal bovine serum (FBS; Atlanta Biological). The silvestrol-sensitive 697 and silvestrol-resistant 697-R pre-B acute lymphoblastic leukemia cells (Gupta et al., AAPS J., 13:357-364 (2011)), the Ewing sarcoma cell line TC32, the osteosarcoma cell lines, Saos2 and OS17, and the rhabdomyosarcoma cell line RD were cultivated in RPMI 1640 medium (Millipore-Sigma) plus 10% FBS.
(§2) Actively-growing cells were seeded in 96-well plates (Sarstedt) at 2,000 cells/well for Ben-Men-1 and RD cells, 30,000 cells/well for 697 and 697-R cells, and 4,000 cells/well for all other cell lines. The following day, cells were treated with various concentrations of each compound or and 0.05% of DMSO as the control for six days for MG-63 cells or three days for all remaining cell lines. Cell proliferation was assessed using resazurin assays and the IC50 value calculated. Cell cycle analysis was performed accordingly. Burns et al., Cancer Res., 73:792-803 (2013).
(§3) To search for compounds with better drug-like properties, the inventors conducted a side-by-side comparison of ten rocaglates lacking the dioxanyl ring with silvestrol for growth-inhibitory activity in a panel of MPNST, schwannoma, and meningioma cell lines, which they had previously shown to be sensitive to the antiproliferative action of silvestrol. […] The average IC50 value of each rocaglate was determined by 3-day resazurin proliferation assays. […] Further structure and activity comparison discerned some positions on the cyclopenta[b]benzofuran scaffold that affected the antiproliferative activity of rocaglates.

[2] = test system: Ben-Men-1 NF2−/− meningioma cells; experiment: 3-day resazurin cell proliferation assay, Ben-Men-1 meningioma cells; type: cell-based, human; settings: Homo sapiens, 72 h, read-out: IC50 (nM) Ben-Men-1 NF2−/− meningioma cells
Experimental: as §1, §2, §3

[3] = test system: STS26T NF1+/+ MPNST cells; experiment: 3-day resazurin cell proliferation assay, STS26T MPNST cells; type: cell-based, human; settings: Homo sapiens, STS-26T, 72 h, read-out: IC50 (nM) STS26T NF1+/+ MPNST cells
Experimental: as §1, §2, §3

[4] = test system: 697-R leukemic cells (overexpress MDR1/Pgp); experiment: Cell proliferation, MDR1-overexpressing silvestrol-resistant 697-R leukemic cells; type: cell-based; settings: MDR1, 72 h, read-out: IC50 in 697-R cells
Experimental: (§4) FIGS. 3A-3C provide graphs showing that, unlike silvestrol, DDR and Roe inhibits proliferation of MDR1-overexpressing 697-R leukemic cells at IC50 values similar to parental silvestrol-sensitive 697 cells. Cell proliferation was measured on 697-R and parental 697 pre-B leukemia cells treated for 3 days with various concentrations of silvestrol (A), DDR (B), and Roc (C). Each treatment was performed in six replicates, and each experiment was repeated twice. Shown are representative dose-response growth inhibition curves from experiments for all three drugs that were run in parallel. The IC50 values for individual growth curves are shown in the graph insets.
(§5) The human MPNST cell lines, ST8814, STS26T, S462, T265, and luciferase-expressing ST8814-Luc, the human NF2-deficient meningioma cell line Ben-Men-1, the NJ2 mouse schwannoma cell line Sch10545, and primary human Schwann cells were propagated as previously described. Oblinger et al., Neuro-Oncol., 18:1265-1277 (2016). […]
(§6) Actively-growing cells were seeded in 96-well plates (Sarstedt) at 2,000 cells/well for Ben-Men-1 and RD cells, 30,000 cells/well for 697 and 697-R cells, and 4,000 cells/well for all other cell lines. […] Cell proliferation was assessed using resazurin assays and the IC50 value calculated. […]

[5] = test system: 697 pre-B leukemia cells; experiment: Cell proliferation, parental silvestrol-sensitive 697 leukemic cells; type: cell-based; settings: 72 h, 3 days treatment
Experimental: as §4, §5, §6

[6] = Saradhi et al. 2011; cited from earlier work
[7] = test system: Sch10545 Nf2−/− schwannoma cells; experiment: 3-day resazurin cell proliferation assay, Sch10545 schwannoma cells; type: cell-based, mouse; settings: Mus musculus, 72 h, read-out: IC50 (nM) Sch10545 Nf2−/− schwannoma cells
Experimental: as §1, §2, §3

[8] = biological target: multidrug resistance 1 (MDR1) transporter (Homo sapiens, UniProt P08183); settings: cited from earlier work
[9] = Kinghorn et al. 2016 and NCI Developmental Therapeutics Program study, same conditions; cited from earlier work

SMILES: COC(=O)[C@H]1[C@@H](O)[C@@]2(O)c3c(OC)cc(O[C@@H]4O[C@@H]([C@H](O)CO)CO[C@H]4OC)cc3O[C@@]2(c2ccc(OC)cc2)[C@@H]1c1ccccc1 [Silvestrol, reference compound]
- IC50 [1]: 40 nM
- IC50 [2]: 10 nM
- IC50 [3]: 10 nM
- IC50 [4]: 26 nM
- IC50 [5]: 3.5 nM
- oral bioavailability [6]: less than 2%
- IC50 [7]: 70 nM
- substrate for the MDR1 transporter [8]: substrate
- pulmonary toxicity in dogs [9]: unexpected pulmonary toxicity
